Test results reported in publication PMC12040169 (PLOS Biology, 2025).

test: in vitro; conditions: human, hela cells, % viability

Structure (SMILES) | viability at 28.5 h, 10 µM
COc1ccc(OCC(F)(F)F)c(C(=O)N2CCSCC2)c1 [CBK005950] | 83.7%
CCN(CC)CC(O)Cn1ccc(-c2cccs2)n1 (stereo not shown) [CBK005967] | 88.7%
Cn1c2c(ccc1=O)CCCCC2 [CBK005987] | 92%
O=c1cc(O)c2c(=O)n(-c3ccccc3)c(-c3ccccc3)cc2o1 [CBK006116] | 89.1%
Nc1nonc1-c1cccnc1 [CBK006120] | 105%
CC(C)(C)SCC(=O)c1ccc2c(c1)CCC(=O)N2 [CBK006168] | 104%
CC1CCN(C(=S)Nc2ccccc2)CC(C)(C)C1 (stereo not shown) [CBK006185] | 93.9%
Clc1cc(-c2cnc3ccccc3n2)c(Cl)s1 [CBK006186] | 85.4%
O=C1COCC(=O)N1c1ccccn1 [CBK006233] | 89.2%
OC1(C(F)(F)F)C=C(c2cccs2)ON1 (stereo not shown) [CBK006243] | 89%
Nc1ccccc1Sc1nccc(C(F)(F)F)n1 [CBK006263] | 94.5%
CCOC(=O)N/N=C1\CCSc2sccc21 [CBK006300] | 110%
FC(F)(F)c1nnc(-c2cc3sccc3s2)o1 [CBK006303] | 96.4%
CCCc1c(C(=O)NC2CC2)cnn1-c1ccc(Cl)cc1 [CBK006334] | 112%
OCC12COC3c4ccccc4C(OC1)N32 (stereo not shown) [CBK006347] | 89.5%
COC(=O)c1sc(N2CCOCC2)c(C#N)c1N [CBK006430] | 101%
CNC(=S)N(CCS(=O)(=O)c1ccc(Cl)cc1)Cc1cccs1 [CBK006431] | 97.5%
O=c1ccccn1COCc1ccccc1 [CBK006438] | 103%
Cc1c(C(=O)N2CCCCC2)sc2nc(C(F)(F)F)nn12 [CBK006455] | 105%
Cc1c2c(nn1C)CSc1ccccc1C2=O [CBK006517] | 92.8%
S=C1NC2(CCCCC2)NC12CCCCC2 [CBK006533] | 98.5%
COc1ccc(C)cc1NC(=O)Nc1nc(C)cs1 [CBK006565] | 83.3%
Cc1ccc2c(c1)N(CCO)C(C)(C)CC2C (stereo not shown) [CBK006567] | 92.1%
CNC(=O)C1/C(=N\O)c2ccccc2N1C(C)=O (stereo not shown) [CBK006569] | 114%
COc1ccc(-c2cc(=O)n3cc[nH]c3n2)cc1 [CBK006659] | 87.6%

Structure (SMILES) | viability at 28.5 h, 10 µM
CCCCC(O)C[N+]1(C)CCC(c2ccccc2)CC1 (stereo not shown) [CBK006696I] | 101%
CC(C)(C)S(=O)(=O)c1ccc2nc3c(n2c1)CCCC3 [CBK006753] | 94.9%
N/C(=N\c1nonc1N)NC(=O)c1ccccc1 [CBK006756] | 71.5%
N/C(CSc1cccc2c1CCCC2)=N\O [CBK006787C] | 101%
Cn1c(C(C)(C)C)cs/c1=N\NS(=O)(=O)c1ccccc1 [CBK006830B] | 110%
CC(C)(C)c1cc(NC(=O)C(C)(C)S(=O)(=O)c2ccc(C(F)(F)F)cn2)no1 [CBK006849] | 113%
COc1ccc(C(=O)n2nc(SC)nc2N)cc1 [CBK006853] | 100%
CCCCNC(=O)N(O)C1N(C)C(=S)SC1(C)C (stereo not shown) [CBK006880] | 91.2%
Cc1cc(N(C)C)nc(SCc2n[nH]c(=S)o2)n1 [CBK006887] | 99.8%
CC(C)(C)C(=O)CSc1nnc(-c2ccccn2)s1 [CBK006894] | 91.9%
CC1SC(c2cc3ccccc3o2)N(c2ccc(F)cc2F)C1=O (stereo not shown) [CBK006917] | 107%
CCOC(=O)CSC/C(=N/Nc1ccccc1)c1cccs1 [CBK006956] | 102%
CNC(=O)Nc1cc(C(O)(C(F)(F)F)C(F)(F)F)ccc1C [CBK006970] | 113%
CC1(C)CCN(Cc2ccccc2)C1CC#N (stereo not shown) [CBK006978C] | 102%
OCCCc1[nH]nc(-c2ccc(Cl)cc2)c1Br [CBK006993] | 59.2%
CCOC(=O)CSc1nc(-c2ccc(C)cc2)cs1 [CBK007039] | 90.4%
CCCCCOc1ccc(-c2ccc(Cl)nn2)cc1 [CBK007044] | 83.7%
COC(=O)CSc1nnc(CSc2cc(C)nc(N3CCOCC3)n2)o1 [CBK007059] | 96.1%
C/C(=N/NC(N)=S)c1ccccc1OCC(=O)O [CBK007123] | 97.9%
O=C1C=C(N2CCC(CCC3CCN(C4=CC(=O)CCC4)CC3)CC2)CCC1 [CBK007126] | 105%
COC(=O)/N=C1/Nc2ccccc2CN1CC(N)=O [CBK007160] | 91.9%
COc1ccc(-c2cc(NC(=S)NC(=O)/C=C/c3ccccc3)[nH]n2)cc1 [CBK007190] | 97.9%
O=C(c1c[nH]c2ccccc12)C(F)(F)C(F)(F)F [CBK007222] | 101%
CS(=O)(=O)c1nsc(Cl)n1 [CBK007229] | 87.9%
FC(F)(F)c1ccc2[nH]c(Cn3cncn3)nc2c1 [CBK007335] | 85.3%

Structure (SMILES) | viability at 28.5 h, 10 µM
CC1(C)CC(=O)c2cnc3ncnn3c2C1 [CBK007345] | 110%
CN(C)c1nc(N2CCN(c3ccc(F)cc3)CC2)cc(C(F)(F)F)n1 [CBK007432] | 91.1%
COc1ccc(/C=N/NC(=O)C2CCN(c3ncc(C(F)(F)F)cc3Cl)CC2)cc1 [CBK007433] | 102%
O=C(Cc1ncc(C(F)(F)F)cc1Cl)NO [CBK007437] | 85%
COc1ccc(-n2nc(N)c3c(=O)oc(N(C)C)nc32)cc1 [CBK007445] | 89.9%
CN(C)c1nc(N2CCOCC2)c(C#N)c(=O)o1 [CBK007447] | 116%
O=C1NC2(CCSCC2)Oc2ccccc21 [CBK007488] | 79.3%
Cc1cc(CC(=O)N/N=C/c2ccccc2)[nH]n1 [CBK007500] | 99.8%
Cc1nn2c(c1-c1ccno1)CCCCC2 [CBK007505] | 97.6%
CSc1ncnc2c1CC=N2 [CBK007532] | 96.4%
O=C(Nc1nc2ccccc2s1)NC1CC1 [CBK007542] | 102%
CC(C)C(=O)N(C)c1nnc(-c2cccnc2)s1 [CBK007554] | 114%
COC(=O)c1c(C(C)(C)C)c(O)c2ccoc2c1OC [CBK007577] | 94.2%
Oc1cccc2c1CC(NCC(F)(F)C(F)(F)F)CC2 (stereo not shown) [CBK007596] | 96.5%
O=C(N[C@H]1COC(=O)N1)OCc1ccccc1 [CBK007606] | 114%
CCCCCC(=O)N1CCc2cc(N3CC(CNC(C)=O)OC3=O)ccc21 (stereo not shown) [CBK007646] | 92.5%
COc1ccc(C2Oc3cccnc3N(CCCN(C)C)C2=O)cc1 (stereo not shown) [CBK007694] | 101%
Cc1c(C#N)c(=O)oc2ccccc12 [CBK007705] | 95.2%
CC(C)(C)OC(=O)N1Cc2c(-c3noc(C4CC4)n3)ncn2-c2ccc(Cl)cc21 [CBK007792] | 90.2%
CCCCCC(=O)N[C@H]1CCC[C@H]1C(=O)O [CBK007807] | 118%
O=C1c2ccccc2C(=O)N1CCc1nnn[nH]1 [CBK007829] | 111%
C/C(=N\O)c1ccc(S(N)(=O)=O)cc1 [CBK007871] | 100%
NC(=O)CCCN1CC[C@H]2c3c(cccc3C(N)=O)CC[C@H]21 [CBK007883] | 93.3%
CCOc1n[s+]([O-])nc1Nc1cc(Cl)cc(Cl)c1 (stereo not shown) [CBK007897] | 101%
OC1(c2nnsc2-c2ccccc2)CCCC1 [CBK007956] | 90.2%

Structure (SMILES) | viability at 28.5 h, 10 µM
Cc1c(NC(=S)NCCCN2CCOCC2)c(=O)n(-c2ccccc2)n1C [CBK008032] | 90.7%
O=C(NCc1cccs1)OCc1ccccc1 [CBK008074] | 96.6%
CN(C(=O)OC(C)(C)C)C1CN(C(c2ccccc2)c2ccccc2)C1 [CBK008111] | 89.8%
O=C1C=C(O)CC(CCc2ccc(F)cc2)(CCc2ccc(F)cc2)O1 [CBK008148] | 92.7%
N#CC(N)c1c(Cl)cccc1Cl (stereo not shown) [CBK008288C] | 103%
CCCOc1ccc(Cc2nc(N(C)C)cc(N(C)C)n2)cc1 [CBK008318] | 102%
O=C(c1c[nH]c(-c2ncn[nH]2)c1)c1ccc(Cl)cc1Cl [CBK008334] | 93.4%
Sc1nccn1Cc1cccs1 [CBK008454] | 92%
N#CCSC1=CC(=O)CC(c2ccccc2)S1 (stereo not shown) [CBK008460] | 92.1%
COCc1cc(=O)oc2cc(NS(C)(=O)=O)ccc12 [CBK008516] | 119%
S=C(NCc1cccs1)NC1CC1 [CBK008520] | 86.4%
CC(C)(C)c1ccc(OCc2nc(N)c3c(N)n[nH]c3n2)cc1 [CBK008565] | 90.8%
C=CCOCc1cc(O)n2nc(SC)c(C(N)=O)c2n1 [CBK008592] | 94.6%
COc1ccc(OC)c(S(=O)(=O)N2CCN(c3ncccn3)CC2)c1 [CBK008662] | 92.7%
CC(C)(C)c1ccc(C(=O)N2CC(C(=O)O)C2)cc1 [CBK008670] | 101%
NC(Cc1ccc(Cl)cc1)C(=O)N(CCc1cc(C(F)(F)F)cc(C(F)(F)F)c1)c1cccc2ccccc12 (stereo not shown) [CBK008674T] | 92.5%
CCN(CC)CCOC(=O)c1oc2c3c(ccc2c1C)OCCO3 [CBK008676C] | 115%
CCCCc1nnc(CC(C)C)o1 [CBK008679] | 106%
CCCCn1cc(CN(C)C)c2c(C)ccnc21 [CBK008697] | 102%
CCOC(=O)C1=C(N)OC2=C(C(=O)CC(C)(C)C2)C1c1cc(OCC)ccc1OCC (stereo not shown) [CBK008699] | 107%
Cc1nnc(O)c2c(C)n(-c3ccc(Br)cc3)nc12 [CBK008726] | 86.2%
CC1(C)O[C@@H]2O[C@@H](C(O)CNC(=O)c3ccccc3)[C@@H](O)[C@@H]2O1 (stereo partly shown) [CBK008736] | 87%
Cc1ccc(C2(C(=O)N3CCCC3)CCN(S(=O)(=O)c3ccc(C)cc3)CC2)cc1 [CBK008752] | 102%
COc1ccc(C2c3ccccc3C[N+]3(C)CCCN23)cc1 (stereo not shown) [CBK008769] | 95.7%
Cc1cc(C)[n+](-c2nccs2)c(C)c1 [CBK008782G] | 103%
